# Source: US8637501B2, “Azinone-substituted azepino[b]indole and pyrido-pyrrolo-azepine MCH-1 antagonists, methods of making, and use thereof” (Albany Molecular Research, Inc., priority 2009, dated 2014)
# Tests used:
# [1] = target: human MCH-1 receptor (Homo sapiens (Human), UniProt Q99705); assay: Binding Assay for Human Melanin-Concentrating Hormone (MCH-1) Receptor; details: radioligand displacement, membranes from CHO-K1 cells expressing human MCH-1 receptor; Ki from IC50 by Cheng Prusoff equation; read-out: MCH1 Ki
# Outline: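 Membranes from CHO-K1 cells stably expressing human MCH-1 incubated 60 min at 25 °C with 1.4 nM tritiated indazolyl-pyridinone radioligand in 50 mM Tris-HCl pH 7.4. Bound counts by filtration and scintillation; IC50 and nH by Hill fit, Ki by Cheng–Prusoff.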
# Sequence of human MCH-1 receptor (Q99705 whole entry): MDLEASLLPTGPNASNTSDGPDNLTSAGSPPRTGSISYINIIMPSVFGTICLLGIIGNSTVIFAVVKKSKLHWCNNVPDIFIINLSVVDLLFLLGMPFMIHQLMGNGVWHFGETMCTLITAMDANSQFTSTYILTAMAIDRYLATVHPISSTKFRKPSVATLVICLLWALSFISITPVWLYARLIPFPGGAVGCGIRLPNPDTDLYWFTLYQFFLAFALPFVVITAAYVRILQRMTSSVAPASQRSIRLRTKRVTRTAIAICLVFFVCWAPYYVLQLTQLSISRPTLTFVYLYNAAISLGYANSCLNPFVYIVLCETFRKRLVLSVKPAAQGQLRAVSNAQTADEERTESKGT
SMILES,Ki [1] [nM],melting point
"CCN1CCc2c(n(C)c3cc(-n4ccc(OCc5ccccc5)cc4=O)ccc23)CC1.Cl [Example 14, 4-(Benzyloxy)-1-(3-ethyl-6-methyl-1,2,3,4,5,6-hexahydroazepino[4,5-b]indol-8-yl)pyridin-2(1H)-one hydrochloride]",9.6,246 to 248 °C
"CC(C)N1CCc2c(n(C)c3cc(-n4ccc(OCc5ccccc5)cc4=O)ccc23)CC1.Cl [Example 15, 4-(Benzyloxy)-1-(3-isopropyl-6-methyl-1,2,3,4,5,6-hexahydroazepino[4,5-b]indol-8-yl)pyridin-2(1H)-one hydrochloride]",10.4,256 to 258 °C
"CC(C)N1CCc2[nH]c3cc(-n4ccc(OCc5ccccc5)cc4=O)ccc3c2CC1.Cl [Example 17, 4-(Benzyloxy)-1-(3-isopropyl-1,2,3,4,5,6-hexahydroazepino[4,5-b]indol-8-yl)pyridin-2(1H)-one hydrochloride]",7.2,152 to 155 °C
"Cl.Cn1c2c(c3ccc(-n4ccc(OCc5ccccc5)cc4=O)cc31)CCCNC2 [Example 18, 4-(Benzyloxy)-1-(10-methyl-1,2,3,4,5,10-hexahydroazepino[3,4-b]indol-8-yl)pyridin-2(1H)-one hydrochloride]",11.8,210 to 218 °C (dec.)
"Cl.Cn1c2c(c3ccc(-n4ccc(OCc5ccc(F)cn5)cc4=O)cc31)CCCNC2 [Example 19, 4-((5-Fluoropyridin-2-yl)methoxy)-1-(10-methyl-1,2,3,4,5,10-hexahydroazepino[3,4-b]indol-8-yl)pyridin 2(1H)-one hydrochloride]",14.8,268 to 275 °C (dec.)
"Cl.Cn1c2c(c3ccc(-n4ccc(OCc5ccccc5)cc4=O)cc31)CNCCC2 [Example 21, 4-(Benzyloxy)-1-(6-methyl-1,2,3,4,5,6-hexahydroazepino[4,3-b]indol-8-yl)pyridin-2(1H)-one hydrochloride]",4.7,283 to 287 °C (dec.)
"Cl.Cn1c2c(c3ccc(-n4ccc(-c5ccc(C(F)(F)F)cn5)cc4=O)cc31)CNCCC2 [Example 23, 1-(6-Methyl-1,2,3,4,5,6-hexahydroazepino[4,3-b]indol-8-yl)-4-(5-(trifluoromethyl)pyridin-2-yl)pyridin-2(1H)-one hydrochloride]",4.7,264 to 270 °C (dec.)
"Cl.Cn1c2c(c3ccc(-n4ccc(-c5ccc(C(F)(F)F)nc5)cc4=O)cc31)CNCCC2 [Example 27, 1-(6-Methyl-1,2,3,4,5,6-hexahydroazepino[4,3-b]indol-8-yl)-4-(6-(trifluoromethyl)pyridin-3-yl)pyridin-2(1H)-one hydrochloride]",5.3,274 to 280 °C (dec.)
"Cl.Cn1c2c(c3ccc(-n4ccc(-c5ccc(C(F)(F)F)nn5)cc4=O)cc31)CNCCC2 [Example 28, 1-(6-Methyl-1,2,3,4,5,6-hexahydroazepino[4,3-b]indol-8-yl)-4-(6-(trifluoromethyl)pyridazin-3-yl)pyridin-2(1H)-one hydrochloride]",10.9,248 to 252 °C (dec.)
"CSc1ccc(-c2ccn(-c3ccc4c5c(n(C)c4c3)CCCNC5)c(=O)c2)cc1.Cl [Example 32, 1-(6-Methyl-1,2,3,4,5,6-hexahydroazepino[4,3-b]indol-8-yl)-4-(4-(methylthio)phenyl)pyridin-2(1H)-one hydrochloride]",4.9,250 to 255 °C (dec.)
"Cc1ccc(-c2ccn(-c3ccc4c5c(n(C)c4c3)CCCNC5)c(=O)c2)cn1.Cl [Example 33, 1-(6-Methyl-1,2,3,4,5,6-hexahydroazepino[4,3-b]indol-8-yl)-4-(6-methylpyridin-3-yl)pyridin-2(1H)-one hydrochloride]",17.5,245 to 250 °C (dec.)
"Cl.O=c1cc(-c2ccc(C(F)(F)F)cn2)ccn1-c1ccc2c3c([nH]c2c1)CCCNC3 [Example 36, 1-(1,2,3,4,5,6-Hexahydroazepino[4,3-b]indol-8-yl)-4-(5-(trifluoromethyl)pyridin-2-yl)pyridin-2(1H)-one hydrochloride]",12.2,310 to 320 °C (dec.)
"Cl.O=c1cc(-c2ccc(C(F)(F)F)nn2)ccn1-c1ccc2c3c([nH]c2c1)CCCNC3 [Example 37, 1-(1,2,3,4,5,6-Hexahydroazepino[4,3-b]indol-8-yl)-4-(6-(trifluoromethyl)pyridazin-3-yl)pyridin-2(1H)-one hydrochloride]",29.2,310 to 315 °C (dec.)
Cn1c2c(c3ccc(-n4ccc(OCc5ccccc5)cc4=O)cc31)C(=O)NCCC2 [Example 38],100,178 to 181 °C
"Cl.Cn1c2c(c3ccc(-n4ncc(OCc5ccc(C(F)(F)F)nc5)cc4=O)cc31)CCNCC2 [Example 47, 2-(6-Methyl-1,2,3,4,5,6-hexahydroazepino[4,5-b]indol-8-yl)-5-((6-(trifluoromethyl)pyridin-3-yl)methoxy)pyridazin-3(2H)-one hydrochloride]",74,270 to 274 °C
"CC(=O)N1CCc2c(n(C)c3cc(-n4ccc(OCc5ccc(F)cn5)cc4=O)ccc23)CC1.Cl [Example 48, 1-(3-Acetyl-6-methyl-1,2,3,4,5,6-hexahydroazepino[4,5-b]indol-8-yl)-4-((5-fluoropyridin-2-yl)methoxy)pyridin-2(1H)-one]",60,88 to 94 °C
"CC(=O)N1CCc2[nH]c3cc(-n4ccc(OCc5ccccc5)cc4=O)ccc3c2CC1 [Example 54, 1-(3-Acetyl-1,2,3,4,5,6-hexahydroazepino[4,5-b]indol-8-yl)-4-(benzyloxy)pyridin-2(1H)-one]",112,250 to 254 °C
"Cl.Cn1c2c(c3ccc(-n4ccc(OCc5ncc(Cl)cc5Cl)cc4=O)cc31)CCNCC2 [Example 56, 4-((3,5-Dichloropyridin-2-yl)methoxy)-1-(6-methyl-1,2,3,4,5,6-hexahydroazepino[4,5-b]indol-8-yl)pyridin-2(1H)-one hydrochloride]",27,178 to 180 °C
"CC(=O)N1CCCc2c(c3ccc(-n4ccc(OCc5ccc(F)cn5)cc4=O)cc3n2C)C1 [Example 61, 1-(2-Acetyl-6-methyl-1,2,3,4,5,6-hexahydroazepino[4,3-b]indol-8-yl)-4-((5fluoropyridin-2-yl)methyoxy)pyridin-2(1H)-one]",57,78 to 83 °C
"CC(=O)N1CCCc2c(c3ccc(-n4ccc(-c5ccc(C(F)(F)F)nc5)cc4=O)cc3n2C)C1 [Example 62, 1-(2-Acetyl-6-methyl-1,2,3,4,5,6-hexahydroazepino[4,3-b]indol-8-yl)-4-(6-(trifluoromethyl)pyridin-3-yl)pyridin-2(1H)-one]",60,156 to 162 °C
"Cl.Cn1c2c(c3ccc(-n4ccc(OCc5ccc(Cl)cn5)cc4=O)cc31)CNCCC2 [Example 63, 4-((5-Chloropyridin-2-yl)methoxy)-1-(6-methyl-1,2,3,4,5,6-hexahydroazepino[4,3-b]indol-8-yl)pyridin-2(1H)-one hydrochloride]",5,260 to 266 °C
"Cl.Cn1c2c(c3ccc(N4CCN(CCc5ccc(Cl)cc5)CC4=O)cc31)CNCCC2 [Example 64, 4-(4-Chlorophenethyl)-1-(6-methyl-1,2,3,4,5,6-hexahydroazepino[4,3-b]indol-8-yl)piperazin-2-one hydrochloride]",4.6,252 to 257 °C
"Cl.Cn1c2c(c3ccc(-n4ccc(OCc5ccc(F)cc5F)cc4=O)cc31)CNCCC2 [Example 66, 4-(2,4-Difluorobenzyloxy)-1-(6-methyl-1,2,3,4,5,6-hexahydroazepino[4,3-b]indol-8-yl)pyridin-2(1H)-one hydrochloride]",7.3,272 to 280 °C
"Cl.Cn1c2c(c3ccc(-n4ccc(OCc5ncc(Cl)cc5Cl)cc4=O)cc31)CNCCC2 [Example 67, 4-((3,5-Dichloropyridin-2-yl)methoxy)-1-(6-methyl-1,2,3,4,5,6-hexahydroazepino[4,3-b]indol-8-yl)pyridin-2(1H)-one dihydrochloride]",22,251 to 256 °C
"Cl.Cn1c2c(c3ccc(-n4ccc(OCc5ccc(Cl)cc5F)cc4=O)cc31)CNCCC2 [Example 68, 4-(4-Chloro-2-fluorobenzyloxy)-1-(6-methyl-1,2,3,4,5,6-hexahydroazepino[4,3-b]indol-8-yl)pyridin-2(1H)-one hydrochloride]",8.2,191 to 200 °C
"Cl.Cn1c2c(c3ccc(-n4ccc(OCc5ccc(F)cn5)cc4=O)cc31)CN(C1CCC1)CCC2 [Example 72, 1-(2-Cyclobutyl-6-methyl-1,2,3,4,5,6-hexahydroazepino[4,3-b]indol-8-yl)-4-((5-fluoropyridin-2-yl)methoxy)pyridin-2(1H)-one hydrochloride]",7.5,260 to 265 °C
"CN1CCCc2c(c3ccc(N4CCN(CCc5ccc(F)cc5)CC4=O)cc3n2C)C1.Cl [Example 74, 1-(2,6-Dimethyl-1,2,3,4,5,6-hexahydroazepino[4,3-b]indol-8-yl)-4-(4-fluorophenethyl)piperazin-2-one hydrochloride]",10,211 to 220 °C
"Cl.Cn1c2c(c3ccc(N4CCN(CCc5ccc(F)cc5)CC4=O)cc31)CN(C1CCC1)CCC2 [Example 75, 1-(2-Cyclobutyl-6-methyl-1,2,3,4,5,6-hexahydroazepino[4,3-b]indol-8-yl)-4-(4-fluorophenethyl)piperazin-2-one hydrochloride]",14,194 to 205 °C
"CCN1CCCc2c(c3ccc(N4CCN(CCc5ccc(F)cc5)CC4=O)cc3n2C)C1.Cl [Example 76, 1-(2-Ethyl-6-methyl-1,2,3,4,5,6-hexahydroazepino[4,3-b]indol-8-yl)-4-(4-fluorophenethyl)piperazin-2-one hydrochloride]",9.8,190 to 205 °C
